How the values were obtained:
[1] = target: T1, rhLCMT-1 (Homo sapiens, UniProt Q9UIC8); assay: rhLCMT-1 activity assay (dot immunoblot); type: biochemical; conditions: each inhibitor 50 μM; 20 μM SAM; 37° C. for 30 minutes
T1 construct: purchased SignalChem (Richmond, British Columbia, Canada)
Procedure: Recombinant human LCMT-1 (rhLCMT-1) and rhPP2Ac were obtained from SignalChem (Richmond, British Columbia, Canada). Methyltransferase assays were performed with 100 ng rhLCMT-1 and 91.62 ng rhPP2Ac (2:1 molar ratio) (28) in reaction buffer containing 20 mM Tris (pH 8.0), 50 mM NaCl, 1 mM EDTA. rhLCMT-1 was incubated with Compound 1 (Chemspace, San Jose, California), Compound 2 (Akos Consulting and Solutions, Amtsgericht, Freiburg, Germany) or sinefungin, a SAM analogue, (Active Motif, Carlsbad, California), each at 50 μM final concentration, for 10 minutes at room temperature. rhPP2Ac was added to the reactions with 20 μM (final concentration) SAM (New England Biolabs, Ipswich, Massachusetts, FIG. 9). […] Reactions were incubated at 37° C. for 30 minutes (FIG. 10). Because the inhibitors gave false positive results with the secondary reactions used in colorimetric and bioluminescent methyltansferase assays, LCMT-1 activity was assessed using dot immunoblots. Reactions were applied to nitrocellulose membranes (Cytiva, Marlborough, Massachusetts). […] Membranes were treated with infrared (IR)-dye anti-mouse antibody (Li-Cor, Lincoln, Nebraska, catalog #926-32210, 1:20,000 dilution) and densities were measured with Li-Cor Image Studio (version 5.2) software. rhLCMT-1 inhibition assays were performed three times, each time with five replicates for each condition.

[2] = tested on: MDA-MB-231 cells transfected with the LCMT-1 expression vector; assay: Cytotoxicity assay in LCMT-1-transfected cells; type: cell-based, human; conditions: MDA-MB-231 transfected with LCMT-1 vector
Procedure: MDA-MB-231 cells were also transfected with the LCMT-1 expression vector using Lipofectamine 3000 transfection reagent (Thermo Fisher Scientific, Waltham, Massachusetts) according to the manufacturer's transfection protocol for MDA-MB-231 cells. After 5 hours the medium was changed. The cells were split 1:100 the following day, and 2 days after transfection, selection with G418 sulfate (Mediatech, Herndon, Virginia) at […] for 2 weeks commenced to develop stably transfected cells. After the selection process, cells were used in Compound 2 cytotoxicity assays as previously described.

[3] = tested on: UM-SCC-49 cells; assay: Radiosensitization assay (crystal violet); type: cell-based, human; conditions: irradiated 8 Grays 3 hours after compound, viability after 24 hours, listed as LCMT-li
Procedure: (§1) MCF7, MDA-MB-231, 501-MEL, Rosi, A549, SCC-15, SCC-25, UM-SCC-12, UM-SCC-14a, UM-SCC-49 and UM-SCC69 cells were seeded in 96-well tissue culture plates as previously described. After 24 hours, the media were changed to media with LCMT-li at various concentrations as described. After 3 hours, cells were irradiated at doses listed in Table 2 with an RS-2000 X-Ray Irradiator (Rad Source Technologies, Buford, Georgia). Radiation doses were based on published radiosensitization studies. After 24 hours cell viability was assessed using crystal violet staining. Briefly, cells were washed with PBS, then stained with crystal violet solution (0.25 g crystal violet in 20% methanol) for 20 minutes with agitation. The wells were washed 6 times with PBS to remove excess crystal violet. Plates were allowed to dry for 48 hours, and then 200 μL methanol was added to each well. The plates were agitated for 20 minutes to dissolve the crystal violet, and absorbance was read at 560 nm. The
(§2) radiosensitization assays were performed twice, each time with eight replicates per condition.

[4] = tested on: UM-SCC-69 cells; assay: Radiosensitization assay (crystal violet); type: cell-based, human; conditions: irradiated 8 Grays 3 hours after compound, viability after 24 hours, listed as LCMT-li
Procedure: as §1, §2

[5] = tested on: 501-MEL cells; assay: Radiosensitization assay (crystal violet); type: cell-based, human; conditions: 8 Grays
Procedure: as §1, §2

[6] = tested on: UM-SCC-12 cells; assay: Radiosensitization assay (crystal violet); type: cell-based, human; conditions: irradiated 8 Grays 3 hours after compound, viability after 24 hours
Procedure: as §1, §2

[7] = tested on: MDA-MB-231 cells; assay: Radiosensitization assay (crystal violet); type: cell-based, human; conditions: 10 Grays, data not shown
Procedure: as §1, §2

[8] = tested on: Rosi cells; assay: Radiosensitization assay (crystal violet); type: cell-based, human
Procedure: as §1, §2

[9] = tested on: A549 cells; assay: Radiosensitization assay (crystal violet); type: cell-based, human; conditions: 4 Grays
Procedure: as §1, §2

[10] = tested on: MCF7 cells; assay: Radiosensitization assay (crystal violet); type: cell-based, human; conditions: 4 Grays
Procedure: as §1, §2

[11] = tested on: SCC-25 cells; assay: Radiosensitization assay (crystal violet); type: cell-based, human; conditions: irradiated 8 Grays 3 hours after compound, viability after 24 hours
Procedure: as §1, §2

[12] = tested on: SCC-15 cells; assay: Radiosensitization assay (crystal violet); type: cell-based, human; conditions: irradiated 8 Grays 3 hours after compound, viability after 24 hours, listed as LCMT-li
Procedure: as §1, §2

T1 sequence (Q9UIC8 whole entry): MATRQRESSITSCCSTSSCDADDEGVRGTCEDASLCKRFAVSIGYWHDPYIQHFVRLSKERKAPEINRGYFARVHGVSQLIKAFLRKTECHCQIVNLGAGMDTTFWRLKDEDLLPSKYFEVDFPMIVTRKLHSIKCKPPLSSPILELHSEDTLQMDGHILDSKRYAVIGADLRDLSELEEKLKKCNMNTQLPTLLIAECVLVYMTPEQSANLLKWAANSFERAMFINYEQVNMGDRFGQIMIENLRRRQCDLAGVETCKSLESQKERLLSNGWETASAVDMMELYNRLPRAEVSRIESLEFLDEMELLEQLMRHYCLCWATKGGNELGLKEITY

SMILES: COC(=O)c1c(NC(=O)c2ccccc2C)sc(C(=O)Nc2cccc(C)c2)c1C [Compound 2, methyl 4-methyl-2-[(2-methylbenzoyl)amino]-5-[[(3-methylphenyl)amino]carbonyl]-3-thiophenecarboxylate]
- methylation of rhPP2Ac by rhLCMT-1 [1]: inhibited methylation of rhPP2Ac to the same degree as the SAM analogue sinefungin
- effect of LCMT-1 overexpression on Compound 2-mediated cell death [2]: induced resistance to Compound 2-mediated cell death
- LCMT-1i radiosensitizing Concentration [3]: 2.5 to 10 µM
- LCMT-1i radiosensitizing Concentration [4]: 2.5 to 10 µM
- radiosensitization [5]: did radiosensitize these cells
- LCMT-1i radiosensitizing Concentration [6]: 200 µM
- radiosensitization [7]: did not radiosensitize MDA-MB-231 cells
- radiosensitization ([8]; 8 Grays): demonstrated radiosensitization
- LCMT-1i radiosensitizing Concentration ([8]; irradiated 8 Grays 3 hours after compound, viability after 24 hours): 50 µM
- radiosensitization [9]: demonstrated radiosensitization
- radiosensitization [10]: did sensitize MCF7 cells to irradiation
- LCMT-1i radiosensitizing Concentration ([11]; listed as LCMT-1i): 1.25 µM
- LCMT-1i radiosensitizing Concentration ([11]; listed as LCMT-li): 2.5 to 10 µM
- LCMT-1i radiosensitizing Concentration [12]: 2.5 to 10 µM

From patent US20250320190A1, “Novel Inhibitors of Leucine Carboxyl Methyltransferase-1 (LCMT-1) and Methods of Use Thereof” (Temple University-Of The Commonwealth System of Higher …, priority 2024, published 2025)
